{"source": "patent EP4144350B1", "about": "“TREATMENT OR PREVENTION OF VASCULAR MALFORMATION” (Universitätsmedizin Greifswald, priority 2021, dated 2023)", "key": {"CCM3^-/- CI-huVECs [1]": {"tested_on": "CCM3^-/- CI-huVECs", "assay": "Targeted RNA sequencing (apoptosis and cell death panel)", "format": "cell-based, human", "settings": "10 µM, 24 h", "excerpt": "RNA was extracted using the PeqGold TriFast reagent (Peqlab-VWR, Radnor, PA, USA) and purified using the Direct-zol RNA MiniPrep Plus Kit (Zymo Research, Irvine, CA, USA). A Qubit 4.0 (Thermo Fisher Scientific) and the Qubit RNA BR Assay Kit (Q10211, Thermo Fisher Scientific) were used to measure RNA concentrations. RNA sample integrity was controlled on a 2100 Bioanalyzer using the RNA 6000 Nano Kit (Agilent, Santa Clara, CA, USA). A QIAseq Targeted Human Apoptosis and Cell Death RNA Panel (RHS-002Z, QIAGEN, Hilden, Germany) was used to prepare RNA sequencing libraries according to the manufacturer's instructions. After quality control with the High Sensitivity DNA Kit on a 2100 Bioanalyzer instrument (Agilent), the pooled libraries were sequenced on a MiSeq (Illumina) with 1x151 cycles. Differential gene expression of RNA sequencing data was carried out using the QIAseq Targeted RNA Primary and Secondary Analysis Tool (QIAGEN)."}, "human tumour cell lines": {"tested_on": "human tumour cell lines", "settings": "cited from earlier work"}, "CCM3^+/+ CI-huVECs": {"tested_on": "CCM3^+/+ CI-huVECs", "assay": "CyQuant cell proliferation assay combined with mutant allele frequencies, co-culture (wild-type cells)", "format": "cell-based, human", "settings": "six days", "experimental": "Clonally expanded CI-huVEC lines with biallelic loss-of-function variants in the first coding exon of CCM3 have been described before or were established according to a published CRISPR/Cas9 genome editing protocol. Blood outgrowth endothelial cells (BOECs) were cultured in EGM-2 medium (Lonza, Basel, Switzerland) supplemented with 18 % FCS. With the approval of the local ethics committee (University Medicine Greifswald, Germany; No.: BB 047/14a), CCM1^-/- BOECs had been established previously from CCM1^+/- BOECs of a CCM1 mutation carrier with CRISPR/Cas9 genome editing. Mutant and wild-type ECs were co-cultured in 96-well plates under standard culture conditions with the indicated mutant-to-wild-type ratios. 2500 cells were seeded per well. The proliferation rate of mutant and wild-type ECs in monoculture was quantified with the CyQuant® Cell Proliferation Assay Kit (C7026, Thermo Fisher Scientific). To discriminate the proliferation rates of CCM3^+/+ and CCM3^-/- CI-huVEC in co-culture, the CyQuant® Cell Proliferation Assay results were combined with mutant allele frequencies that had been determined by amplicon deep sequencing. To analyse their sensitivity to apoptosis, mutant and wild-type ECs were seeded in 96-well plates with 15.000 cells per well, and treated with staurosporine ([…], Sigma-Aldrich, St. Louis, MO, USA) 24 h later. […]"}, "CCM3^-/- CI-huVECs [2]": {"tested_on": "CCM3^-/- CI-huVECs", "assay": "Cell cycle analysis by flow cytometry", "format": "cell-based, human", "settings": "10 µM, 72 h; DMSO 75.9 %", "experimental": "Plating efficiencies were determined as follows: CCM3^+/+ and CCM3^-/- CI-huVEC were seeded in 6-well-plates with either 100 or 250 cells per well. Colonies fixed and stained after eight days with a solution of glutaraldehyde (G6257, Sigma-Aldrich, final concentration 6 %) and crystal violet (HT901, Sigma-Aldrich, final concentration 0.5 %). The plating efficiency was defined as the ratio between the number of colonies and the number of plated cells. A cell cycle analysis kit (MAK344, Sigma-Aldrich) was used to determine cell cycle profiles by flowcytometry (LSRII Flow Cytometer System, BD Biosciences, San Jose, CA, USA). One day after plating, cells were synchronised for 24 h with ECGM supplemented with 0.1 % FCS. Prior to FACS analysis, cells were incubated with ECGM + 10 % FCS for another 24 h or treated with 10 µM NSC59984 for 72 h. Data were analysed with FlowJo v10.7.1 (BD Biosciences)."}, "CCM3^-/- BMECs": {"tested_on": "CCM3^-/- BMECs", "assay": "hiPSC-derived BMEC co-culture, fluorescent imaging of clonal expansion", "format": "cell-based, human", "settings": "10 µM for six days, released, another six days under standard conditions", "experimental": "Fluorescently tagged human induced pluripotent stem cells (Coriell Institute, Camden, NJ, USA) were maintained at 37 °C and 5 % CO2 in Essential 8 Flex medium (Thermo Fisher Scientific, Waltham, MA, USA) on plates coated with growth factor reduced matrigel (Corning Inc., Corning, NY, USA). Cells were passaged with 0.5 mM EDTA (Thermo Fisher Scientific). The following endogenously tagged cell lines as part of the Allen Cell Collection (Coriell Institute) were used: AICS-0036-006:WTC-mEGFP-Safe harbor locus (AAVS1)-cl6 and AICS-0054-091:WTC-mTagRFPT-CAAX-Safe harbor locus (AAVS1)-cl91.\nCCM3^+/+ AICS-0054 hiPSCs, CCM3^+/+ and CCM3^-/- AICS-0036 hiPSCS were differentiated into human brain microvacular endothelial-like cells (hBMECs). Briefly, 158,000 cells were seeded in Essential 8 Flex medium containing 10 µM Y-27632 on growth factor reduced Matrigel-coated 6-well plates. After 24 h, differentiation was initiated by substitution of Essential 8 Flex with Essential 6 medium (Thermo Fisher Scientific). Medium was changed daily for 4 days. […] The ratio of EGFP-tagged AICS-0036 cells compared to all cells was determined using the ImageJ software. […]"}}, "data": [{"smiles": "CN1CCN(C(=O)/C=C/c2ccc([N+](=O)[O-])o2)CC1", "note": "[NSC59984, (E)-1-(4-methylpiperazin-1-yl)-3-(5-nitrofuran-2yl)prop-2-en-1-one]", "values": [{"measurement": "Expression of CDKN1A (p21), FC (fold change NSC59984 vs. DMSO treatment)", "setting": "CCM3^-/- CI-huVECs [1]", "value": 2.33}, {"measurement": "Expression of GADD45A, FC (fold change NSC59984 vs. DMSO treatment)", "setting": "CCM3^-/- CI-huVECs [1]", "value": 2.11}, {"measurement": "Expression of apoptosis-related p53 target genes BBC3 (PUMA) or PMAIP1 (Noxa)", "setting": "CCM3^-/- CI-huVECs [1]", "value": "unaffected"}, {"measurement": "Cell growth of tumour cell lines", "setting": "human tumour cell lines", "value": "reduce cell growth in various human tumour cell lines"}, {"measurement": "Genotoxic effects on normal cells", "setting": "human tumour cell lines", "value": "minimal genotoxic effects on normal cells"}, {"measurement": "Proliferation rate of wild-type ECs", "setting": "CCM3^+/+ CI-huVECs; 10 µM", "value": 295, "unit": "%"}, {"measurement": "Proliferation rate of wild-type ECs", "setting": "CCM3^+/+ CI-huVECs; starting value of the decrease, concentration not printed (by parallel 1 µM)", "value": 761, "unit": "%"}, {"measurement": "Cells in G0/G1 (G0/G1 arrest)", "setting": "CCM3^-/- CI-huVECs [2]", "value": 87.7, "unit": "%"}, {"measurement": "Clonal expansion of CCM3^-/- BMECs in co-culture", "setting": "CCM3^-/- BMECs", "value": "blocked the clonal expansion of CCM3^-/- BMECs in co-culture"}]}]}
